{"source": "PubChem BioAssay AID588845", "about": "(Broad Institute, 2011)", "key": {"[1]": {"test_system": "HMLE_shTWIST viability, CellTiter-Glo luminescence, 72 h", "assay": "cytotoxicity toward TWIST-knockdown HMLE cells – cell-based, CellTiter-Glo luminescence, dry powder, set 2, confirmation (AID 588845)"}, "[2]": {"assay": "cytotoxicity toward TWIST-knockdown HMLE cells – cell-based, CellTiter-Glo luminescence, dry powder, set 2, confirmation (AID 588845)", "details": "HMLE_shTWIST viability, CellTiter-Glo luminescence, 72 h; at 32 µM (top of the series)"}}, "note": "Active and inactive are the calls of the source. How the calls were made is not given here."}
{"compound": "Cc1csc(NC(=O)c2ccc(COc3ccccc3F)o2)n1", "values": [{"measurement": "AC50", "setting": "[1]", "value": 0.13, "unit": "µM"}]}
{"compound": "COc1ccc(/C=C/C(=O)NC2=NCCS2)c(OC)c1", "values": [{"measurement": "viability fraction", "setting": "[2]", "value": "58.2% (inactive)"}]}
{"compound": "O=C(/C=C/c1ccc(-c2ccccc2)cc1)NC1=NCCS1", "values": [{"measurement": "viability fraction", "setting": "[2]", "value": "81.4% (inactive)"}]}
{"compound": "O=C(/C=C/c1ccc(Cl)c(Cl)c1)NC1=NCCS1", "values": [{"measurement": "viability fraction", "setting": "[2]", "value": "71.5% (inactive)"}]}
{"compound": "CCc1ccc(/C=C/C(=O)NC2=NCCS2)cc1", "values": [{"measurement": "AC50", "setting": "[1]", "value": 11.7, "unit": "µM"}]}
{"compound": "Cc1csc(NC(=O)c2ccc(COc3ccccc3)o2)n1", "values": [{"measurement": "AC50", "setting": "[1]", "value": 18.2, "unit": "µM"}]}
{"compound": "CC(C)c1ccc(/C=C/C(=O)NC2=NCCS2)cc1", "values": [{"measurement": "viability fraction", "setting": "[2]", "value": "8.35% (inactive)"}]}
{"compound": "Cc1csc(NC(=O)c2ccc(COc3cccc(F)c3)o2)n1", "values": [{"measurement": "AC50", "setting": "[1]", "value": 1.7, "unit": "µM"}]}
{"compound": "Cc1csc(NC(=O)c2ccc(COc3cccc(Cl)c3)o2)n1", "values": [{"measurement": "AC50", "setting": "[1]", "value": 4.3, "unit": "µM"}]}
